Common to all, as to assay type: in vivo
Data set [1] deals with Tobacco budworm (Heliothis virescens). As to the kind of experiment: Tobacco budworm (Heliothis virescens) microtiter diet test, egg and larval mortality. As to conditions: 120 h, sprayed onto insect diet, assessed after 5 days, read-out: egg and larval mortality in comparison with untreated controls. Here is the method:
B.5. Tobacco Budworm (Heliothis virescens)
For evaluating control of tobacco budworm (Heliothis virescens) the test unit consisted of 96-well-microtiter plates containing an insect diet and 15-25 H. virescens eggs.
The compounds were formulated using a solution containing 75% v/v water and 25% v/v DMSO. Different concentrations of formulated compounds were sprayed onto the insect diet at 10 μl, using a custom built micro atomizer, at two replications.
After application, microtiter plates were incubated at about 28±1° C. and about 80±5% relative humidity for 5 days. Egg and larval mortality was then visually assessed.

Data set [2] relates to Yellow fever mosquito (Aedes aegypti). As to the kind of experiment: whole plant or invertebrate. As to conditions: 48 h, freshly hatched larvae in tap water, assessed after 2 days, read-out: larval mortality in comparison with untreated controls. Here is the method: B.6. Yellow Fever Mosquito (Aedes aegypti)
For evaluating control of yellow fever mosquito (Aedes aegypti) the test unit consisted of 96-well-microtiter plates containing 200 μl of tap water per well and 5-15 freshly hatched A. aegypti larvae. The active compounds were formulated using a solution containing 75% (v/v) water and 25% (v/v) DMSO. Different concentrations of formulated compounds or mixtures were sprayed onto the insect diet at 2.5 μl, using a custom built micro atomizer, at two replications.
After application, microtiter plates were incubated at 28+1° C., 80+5% RH for 2 days. Larval mortality was then visually assessed.

For data set [3], the system named is Diamond back moth (Plutella xylostella). As to the kind of experiment: Diamond back moth (Plutella xylostella) cabbage leaf dip test. As to conditions: foliar, 3rd instar larvae, 72 hours after treatment, read-out: mortality in comparison with untreated controls. Here is the method: B.2. Diamond Back Moth (Plutella xylostella)
The active compound is dissolved at the desired concentration in a mixture of 1:1 (vol:vol) distilled water:acetone. Surfactant (Alkamuls® EL 620) is added at a rate of 0.1% (vol/vol). The test solution is prepared at the day of use.
Leaves of cabbage were dipped in test solution and air-dried. Treated leaves were placed in petri dish enlined with moist filter paper and inoculated with ten 3rd instar larvae. Mortality was recorded 72 hours after treatment. Feeding damages were also recorded using a scale of 0-100%.

For data set [4], the system named is Orchid thrips (Dichromothrips corbetti). As to the kind of experiment: Orchid thrips (Dichromothrips corbetti) floral-immersion test. As to conditions: adult thrips, 72 hours after treatment, read-out: mortality in comparison with untreated controls. The protocol:
B.7. Orchid Thrips (Dichromothrips corbetti)
Dichromothrips corbetti adults used for bioassay were obtained from a colony maintained continuously under laboratory conditions. For testing purposes, the test compound is diluted in a 1:1 mixture of acetone:water (vol:vol), plus Kinetic® HV at a rate of 0.01% v/v.
Thrips potency of each compound was evaluated by using a floral-immersion technique. All petals of individual, intact orchid flowers were dipped into treatment solution and allowed to dry in Petri dishes. Treated petals were placed into individual re-sealable plastic along with about 20 adult thrips. All test arenas were held under continuous light and a temperature of about 28° C. for duration of the assay. After 3 days, the numbers of live thrips were counted on each petal. The percent mortality was recorded 72 hours after treatment.

Data set [5] deals with Western flower thrips (Frankliniella occidentalis). As to the kind of experiment: Western flower thrips (Frankliniella occidentalis) cotton leaf disc test. As to conditions: foliar, 48 h, treated cotton leaf discs, 2 DAT, read-out: mortality in comparison with untreated controls. The protocol:
B.9. Western Flower Thrips (Frankliniella occidentalis)
The active compounds were formulated by a Tecan liquid handler in 100% cyclohexanone as a 10,000 ppm solution supplied in tubes. The 10,000 ppm solution was serially diluted in 100% cyclohexanone to make interim solutions. These served as stock solutions for which final dilutions were made by the Tecan in 50% acetone:50% water (v/v) into 10 or 20 ml glass vials. A nonionic surfactant (Kinetic®) was included in the solution at a volume of 0.01% (v/v). The vials were then inserted into an automated electrostatic sprayer equipped with an atomizing nozzle for application to plants/insects.
Small (˜2″ in height) cotton plants are sprayed with test compounds at concentrations ranging from 300 to 0.01 ppm in acetone/water through the automated VPS. After drying, cotton leaves are removed and circular leaf discs (˜1 cm diameter) are punched from the treated surface and transferred to clean 20 mL scintillation vials. Ten Western flower thrips (FRANOC) are aspirated into each scintillation vial. The vials with the leaf discs and thrips are kept in an upright incubator at 25° C. and 50% relative humidity with a 14:10 light:dark photoperiod. Each treatment is replicated twice.
Thrips mortality is assessed at 2 DAT (days after treatment), counting all thrips both dead and alive. [The average absolute mortality is calculated for each treatment.]

Data set [6] deals with Southern Armyworm (Spodoptera eridania), 2nd Instar Larvae. As to the kind of experiment: Southern armyworm 2nd instar larvae on sprayed lima bean plants. As to conditions: 96 h, 4 days after treatment, read-out: mortality in comparison with untreated controls. The protocol: B.4. Southern Armyworm (Spodoptera eridania), 2nd Instar Larvae
The active compounds were formulated in cyclohexanone as a 10,000 ppm solution supplied in tubes. The tubes were inserted into an automated electrostatic sprayer equipped with an atomizing nozzle and they served as stock solutions for which lower dilutions were made in 50% acetone:50% water (v/v). A nonionic surfactant (Kinetic®) was included in the solution at a volume of 0.01% (v/v).
Lima bean plants (variety Sieva) were grown 2 plants to a pot and selected for treatment at the 1st true leaf stage. Test solutions were sprayed onto the foliage by an automated electrostatic plant sprayer equipped with an atomizing spray nozzle. The plants were dried in the sprayer fume hood and then removed from the sprayer. Each pot was placed into perforated plastic bags with a zip closure. About 10 to 11 armyworm larvae were placed into the bag and the bags zipped closed. Test plants were maintained in a growth room at about 25° C. and about 20-40% relative humidity for 4 days, avoiding direct exposure to fluorescent light (24 hour photoperiod) to prevent trapping of heat inside the bags. Mortality and reduced feeding were assessed 4 days after treatment, compared to untreated control plants.

Data set [7] relates to Silverleaf Whitefly (Bemisia argentifolih) (Adults). The experiment in a line: Silverleaf whitefly adults on sprayed cotton plants. As to conditions: 300 ppm, 3 days after treatment. An excerpt: B.3 Silverleaf Whitefly (Bemisia argentifolih) (Adults)
The active compounds were formulated in cyclohexanone as a 10,000 ppm solution supplied in tubes. The tubes were inserted into an automated electrostatic sprayer equipped with an atomizing nozzle and they served as stock solutions for which lower dilutions were made in 50% acetone:50% water (v/v). A non-ionic surfactant (Kinetic®) was included in the solution at a volume of 0.01% (v/v).
Cotton plants at the cotyledon stage (one plant per pot) were sprayed by an automated electrostatic plant sprayer equipped with an atomizing spray nozzle. The plants were dried in the sprayer fume hood and then removed from the sprayer. Each pot was placed into a plastic cup and about 10 to 12 whitefly adults (approximately 3-5 days old) were introduced. The insects were collected using an aspirator and a nontoxic Tygon® tubing connected to a barrier pipette tip. The tip, containing the collected insects, was then gently inserted into the soil containing the treated plant, allowing insects to crawl out of the tip to reach the foliage for feeding. Cups were covered with a reusable screened lid. […] Mortality was assessed 3 days after treatment, compared to untreated control plants.

Structures are written as SMILES.

Regarding `Cc1ccc(C(C)C)c(N2C(=O)CS/C2=N\N=C\c2ccc(-c3nccc(NC(=O)c4ccc(C(F)(F)F)cc4)n3)cc2)c1` [Example C-5, N-[2-[4-[(E)-[(Z)-[3-(2-isopropyl-5-methyl-phenyl)-4-oxo-thiazolidin-2-ylidene]hydrazono]methyl]phenyl]pyrimidin-4-yl]-4-(trifluoromethyl)benzamide], the mortality at 2500 ppm in data set [1] and in data set [2] was > 75% each time.
Take `CC(C)c1ccccc1/N=C1\SCC(=O)N1/N=C/c1ccc(-c2cc(NC(=O)c3ccc(OC(F)(F)F)cc3)ncn2)cc1` [Example C-12, N-[6-[4-[(E)-[(2Z)-2-(2-isopropylphenyl)imino-4-oxo-thiazolidin-3-yl]iminomethyl]phenyl]pyrimidin-4-yl]-4-(trifluoromethoxy)benzamide]: the mortality at 500 ppm in data set [3], in data set [4] and in data set [6] was > 75% each time. Moreover, the mortality (commonly the share of the test organisms that died) at 2500 ppm in data set [1] was > 75%. In data set [5], the mortality at 300 ppm was > 75%.
`CO[C@@H]1[C@@H](OC)[C@H](C)O[C@@H](O/N=C/c2ccc(-c3cc(NC(=O)c4ccc(OC(F)(F)F)cc4)ncn3)cc2)[C@@H]1OC` [Example C-13, 4-(trifluoromethoxy)-N-[6-[4-[(E)-[(2S,3R,4R,5S,6S)-3,4,5-trimethoxy-6-methyl-tetrahydropyran-2-yl]oxyiminomethyl]phenyl]pyrimidin-4-yl]benzamide]: in data set [1], the mortality at 2500 ppm is > 75%.
Consider `CC(C)c1ccccc1NC(=S)NN=Cc1ccc(-c2cc(C(=N)Nc3ccc(OC(F)(F)F)cc3)ncn2)cc1` [Example C-25], for which the “mortality in comparison with untreated controls” value in data set [7] was “over 75%”.

For the origin of these results see US12564191B2, “Pesticidal compounds” (priority 2020, dated 2026).
